Legend:
[1] = target: T1, human IGF-1R (NIH-3T3 cells over expressing human IGF-1R) (Homo sapiens, UniProt P08069); assay: IGF-1R cellular autophosphorylation (DELFIA); type: cell-based; details: IGF-1 stimulated
T1 construct: expressed in transfected cells; host or cells: NIH-3T3 (mouse fibroblasts)
Summary of the method: (§1)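 Autophosphorylation of IGF-1R or IR is measured in NIH-3T3 lines overexpressing each human receptor after 2 h compound pretreatment and a 15 min ligand challenge (IGF-1 30 ng/mL; insulin 3 ug/mL). Fluorescence is normalised to 100% stimulation.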

human IR (hIR) = target: T2, human IR (hIR) (Homo sapiens, UniProt P06213); assay: IR TR-FRET assay using peptide as the phosphoacceptor; type: biochemical; details: 10 μM ATP, 0.5 nM activated enzyme; for IC50: read-out: IR pIC50 (converted)
T2 construct: containing amino acid residues 979-1382 of human IR; GST (N); rTEV protease site (linker between GST and kinase) (N); made in house; host or cells: Sf9 cells, baculovirus (same process as hIGF1R)
Method: Reaction buffer (50 mM HEPES buffer, pH 7.5; 10 mM MgCl2; 3 mM DTT; 1 mM CHAPS; 0.1 mg/mL BSA) for peptide phosphorylation (10 μl volume) contained, in final concentrations, 500 nM biotinylated peptide substrate; 10 μM ATP; and purified, activated hIGF1R or hIR (0.5 nM). Some compounds were initially assayed against IGF1R in buffer without DTT or CHAPS. […] Compounds, titrated in DMSO, are evaluated at eleven concentrations ranging from 50 μM to 0.2 nM. […] Reactions are incubated for 1 hour at room temperature and are stopped by a 5 μl addition of EDTA (to 33 mM). A further addition of 5 μl detection reagents (for final 7 nM Streptavidin-APC (PerkinElmer #CR130-150), 1 nM Europium-labeled anti-phosphotyrosine monoclonal antibody (PerkinElmer #AD0067), added in reaction buffer (without DTT), is required for signal generation. After 30 minutes, signal is read on PerkinElmer Viewlux microplate imager or Wallac Victor fluorometer.
The data for compound concentration responses were plotted as % Inhibition, calculated with the data reduction formula 100*(1-[(U1-C2)/(C1-C2)]), versus concentration of compound, where • U is the unknown value, • C1 is the average control value obtained for DMSO only, and
C2 is the average control value obtained for reactions stopped with EDTA at t=0.

human IGF1R (hIGF1R) = target: T3, human IGF1R (hIGF1R) (Homo sapiens, UniProt P08069); assay: IGF1R TR-FRET assay using peptide as the phosphoacceptor; type: biochemical; details: 10 μM ATP, 0.5 nM activated enzyme; for IC50: read-out: IGF-1R pIC50 (converted)
T3 construct: containing amino acid residues 957-1367 of human IGF1R; made in house; host or cells: Sf9 cells, baculovirus
Method: A. IR and IGF1 R Time Resolved Fluorescence Resonance Energy Transfer (TR-FRET) Assay Using Peptide as the Phosphoacceptor
Substrate phosphorylation assays are carried out as follows:
The Source of Substrate Peptide
The biotinylated substrate peptide, (sequence-Biotin-aminohexyl-AEEEEY*[…]-NH2) SEQ. ID. 1 is purchased from QCB, Inc. (Hopkinton, Mass.). Purity is determined by HPLC. The calculated molecular mass of the peptide is 2216 dalton. Tyrosine phosphorylation by human IGF1R (hIGF1R) or human IR (hIR) occurs as indicated (Y*) in the peptide sequence described. Solid peptide sample is dissolved to approximately 1 mM in DMSO, aliquoted, and stored at −20° C. until use. True peptide concentration is determined by amino acid analysis.
The Source of Enzyme: • hIGF1R: GST-rTEV-IGF-1R (957-1367) containing amino acid residues 957-1367 of human IGF1R (as annotated by National Center for Biotechnology Information (NCBI) accession number NP_000866) is purified from a baculovirus expression system in Sf9 cells using Glutathione Sepharose 4FF column chromatography followed by Sephadex-200 size exclusion column chromatography. Enzyme purity of approximately 95% is achieved. Samples, in 25 mM Tris-HCl, 250 mM NaCl, 5% glycerol, 1 mM DTT, pH 7.5, are stored at −80° C. until use. • hIR: GST-rTEV-IR(979-1382) containing amino acid residues 979-1382 of human IR (as annotated by NCBI accession number NP_000199) is expressed and purified by the same process as hIGF1R. Enzyme purity of approximately 92% is achieved. Samples, in 25 mM Tris-HCl, 250 mM NaCl, 5% glycerol, 1 mM DTT, pH 7.5, are stored at −80° C. until use.
Activation of hIGF1R and hIR by Autophosphorylation: • hIGF1R: Activation of GST-rTEV-IGF-1R(957-1367) is achieved by a 4 minute incubation of hIGF1R (2.7 μM final) with 2 mM ATP in 50 mM HEPES, 20 mM MgCl2, 0.1 mg/mL BSA, at room temperature. Autophosphorylation is stopped by addition of EDTA (to 100 mM final). Aliquoted samples are flash frozen in liquid nitrogen and stored at −80° C. until use. • hIR: Activation of […] is achieved by a 5 minute incubation of hIR (2.7 μM final) with 2 mM ATP in 100 mM HEPES, 10 mM MgCl2, 0.1 mg/mL BSA, at room temperature. Autophosphorylation is stopped by addition of EDTA (to 100 mM final). Aliquoted samples are flash frozen in liquid nitrogen and stored at −80° C. until use. • Kinase Assay of Purified hIGF1R or hIR:
Assays are performed in 384-well (Greiner, Catalog No. 784076) microtiter plates. Reaction buffer (50 mM HEPES buffer, pH 7.5; 10 mM MgCl2; 3 mM DTT; 1 mM CHAPS; 0.1 mg/mL BSA) for peptide phosphorylation (10 μl volume) contained, in final concentrations, 500 nM biotinylated peptide substrate; 10 μM ATP; and purified, activated hIGF1R or hIR (0.5 nM). Some compounds were initially assayed against IGF1R in buffer without DTT or CHAPS. […] Compounds, titrated in DMSO, are evaluated at eleven concentrations ranging from 50 μM to 0.2 nM. […] No effect on activity relative to controls without DMSO is observed for hIGF1R or IR at these DMSO amounts. Reactions are incubated for 1 hour at room temperature and are stopped by a 5 μl addition of EDTA (to 33 mM). A further addition of 5 μl detection reagents (for final 7 nM Streptavidin-APC (PerkinElmer #CR130-150), 1 nM Europium-labeled anti-phosphotyrosine monoclonal antibody (PerkinElmer #AD0067), added in reaction buffer (without DTT), is required for signal generation. After 30 minutes, signal is read on PerkinElmer Viewlux microplate imager or Wallac Victor fluorometer.
Data were fitted to the curve described by:
y=((Vmax*x)/(K+x)) where • Vmax is the upper asymptote and • K is the IC50.
The results for each tested compound were recorded as pIC50 calculated as follows: […]

COLO205 (colon) = assay: Inhibition of cell proliferation, CellTiter-Glo, COLO205; type: cell-based; details: Homo sapiens, COLO 205, 72 h
Summary of the method: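 Exponentially growing COLO205 cells in medium with 10% FBS were plated below 2000 cells/well at 37 °C, 5% CO2. Untreated wells served as controls.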

[2] = target: T4, IR (NIH-3T3 cells over expressing human IGF-1R or IR) (Homo sapiens, UniProt P06213); assay: IR cellular autophosphorylation (DELFIA); type: cell-based; details: NIH-3T3 cells over expressing IR, insulin stimulated
T4 construct: expressed in transfected cells; host or cells: NIH-3T3 (mouse fibroblasts)
Summary of the method: as §1

[3] = test system: NCI-H929 (multiple myeloma); assay: Inhibition of cell proliferation, CellTiter-Glo, NCI-H929; type: cell-based; details: Homo sapiens, 72 h
Summary of the method: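 Cells were grown in medium with 10% FBS at 37° C, 5% CO2. Cell number was read as CellTiter-Glo luminescence (cellular ATP), with untreated wells as control.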

T2 sequence (P06213 979-1382): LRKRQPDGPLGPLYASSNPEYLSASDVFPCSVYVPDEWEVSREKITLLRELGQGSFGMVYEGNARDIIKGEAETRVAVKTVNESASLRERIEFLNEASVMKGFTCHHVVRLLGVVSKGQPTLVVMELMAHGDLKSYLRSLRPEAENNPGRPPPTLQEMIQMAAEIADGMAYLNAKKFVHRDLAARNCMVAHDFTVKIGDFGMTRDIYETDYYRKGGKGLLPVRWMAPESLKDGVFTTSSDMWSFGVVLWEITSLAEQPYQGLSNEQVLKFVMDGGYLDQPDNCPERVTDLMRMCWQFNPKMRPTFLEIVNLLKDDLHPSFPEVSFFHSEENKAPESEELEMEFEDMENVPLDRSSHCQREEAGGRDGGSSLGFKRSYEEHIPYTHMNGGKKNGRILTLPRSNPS
T3 sequence (P08069 957-1367): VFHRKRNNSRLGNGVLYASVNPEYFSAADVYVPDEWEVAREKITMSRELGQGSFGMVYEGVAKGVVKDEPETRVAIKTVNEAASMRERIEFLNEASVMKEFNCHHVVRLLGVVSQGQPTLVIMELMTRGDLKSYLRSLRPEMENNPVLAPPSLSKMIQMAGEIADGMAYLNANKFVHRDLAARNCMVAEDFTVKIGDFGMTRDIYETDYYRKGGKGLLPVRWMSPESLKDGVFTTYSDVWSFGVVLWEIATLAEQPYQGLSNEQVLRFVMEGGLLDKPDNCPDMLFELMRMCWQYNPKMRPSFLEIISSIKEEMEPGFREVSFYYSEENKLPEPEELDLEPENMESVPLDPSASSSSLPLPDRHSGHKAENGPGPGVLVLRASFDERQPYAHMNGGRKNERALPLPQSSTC
T1 sequence (P08069 31-1367): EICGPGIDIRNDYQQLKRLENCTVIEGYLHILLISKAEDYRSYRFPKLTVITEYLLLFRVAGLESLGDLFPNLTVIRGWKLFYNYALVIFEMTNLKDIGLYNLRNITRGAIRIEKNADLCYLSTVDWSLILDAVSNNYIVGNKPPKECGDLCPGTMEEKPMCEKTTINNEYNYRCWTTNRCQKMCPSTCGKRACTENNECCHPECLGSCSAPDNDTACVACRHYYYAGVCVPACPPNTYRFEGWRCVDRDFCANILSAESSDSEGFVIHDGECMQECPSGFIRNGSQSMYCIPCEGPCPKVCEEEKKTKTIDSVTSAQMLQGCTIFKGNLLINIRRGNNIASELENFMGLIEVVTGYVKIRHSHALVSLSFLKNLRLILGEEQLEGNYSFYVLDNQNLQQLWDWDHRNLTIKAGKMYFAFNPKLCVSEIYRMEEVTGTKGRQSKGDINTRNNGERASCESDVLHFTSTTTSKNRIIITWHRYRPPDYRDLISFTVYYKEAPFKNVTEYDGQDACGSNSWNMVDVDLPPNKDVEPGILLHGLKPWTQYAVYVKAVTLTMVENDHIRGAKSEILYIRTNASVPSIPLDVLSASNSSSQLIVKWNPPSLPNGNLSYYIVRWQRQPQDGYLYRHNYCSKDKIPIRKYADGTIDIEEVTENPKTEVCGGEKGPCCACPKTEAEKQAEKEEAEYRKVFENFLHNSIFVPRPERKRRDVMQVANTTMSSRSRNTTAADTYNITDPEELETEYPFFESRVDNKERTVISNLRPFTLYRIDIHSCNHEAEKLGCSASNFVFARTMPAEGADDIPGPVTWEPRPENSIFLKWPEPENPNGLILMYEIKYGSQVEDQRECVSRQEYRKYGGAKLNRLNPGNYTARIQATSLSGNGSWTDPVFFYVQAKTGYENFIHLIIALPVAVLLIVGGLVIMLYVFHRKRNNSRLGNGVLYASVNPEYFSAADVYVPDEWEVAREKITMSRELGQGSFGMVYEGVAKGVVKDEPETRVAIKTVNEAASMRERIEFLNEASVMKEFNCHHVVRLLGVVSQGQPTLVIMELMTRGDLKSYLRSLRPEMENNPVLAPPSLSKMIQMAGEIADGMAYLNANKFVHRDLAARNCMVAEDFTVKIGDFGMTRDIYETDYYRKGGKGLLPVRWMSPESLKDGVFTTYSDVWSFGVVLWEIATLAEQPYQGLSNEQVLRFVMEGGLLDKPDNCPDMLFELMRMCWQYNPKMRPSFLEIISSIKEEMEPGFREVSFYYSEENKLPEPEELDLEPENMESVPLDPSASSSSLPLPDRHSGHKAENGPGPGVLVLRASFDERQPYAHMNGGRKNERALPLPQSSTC
T4 sequence (P06213 28-1382): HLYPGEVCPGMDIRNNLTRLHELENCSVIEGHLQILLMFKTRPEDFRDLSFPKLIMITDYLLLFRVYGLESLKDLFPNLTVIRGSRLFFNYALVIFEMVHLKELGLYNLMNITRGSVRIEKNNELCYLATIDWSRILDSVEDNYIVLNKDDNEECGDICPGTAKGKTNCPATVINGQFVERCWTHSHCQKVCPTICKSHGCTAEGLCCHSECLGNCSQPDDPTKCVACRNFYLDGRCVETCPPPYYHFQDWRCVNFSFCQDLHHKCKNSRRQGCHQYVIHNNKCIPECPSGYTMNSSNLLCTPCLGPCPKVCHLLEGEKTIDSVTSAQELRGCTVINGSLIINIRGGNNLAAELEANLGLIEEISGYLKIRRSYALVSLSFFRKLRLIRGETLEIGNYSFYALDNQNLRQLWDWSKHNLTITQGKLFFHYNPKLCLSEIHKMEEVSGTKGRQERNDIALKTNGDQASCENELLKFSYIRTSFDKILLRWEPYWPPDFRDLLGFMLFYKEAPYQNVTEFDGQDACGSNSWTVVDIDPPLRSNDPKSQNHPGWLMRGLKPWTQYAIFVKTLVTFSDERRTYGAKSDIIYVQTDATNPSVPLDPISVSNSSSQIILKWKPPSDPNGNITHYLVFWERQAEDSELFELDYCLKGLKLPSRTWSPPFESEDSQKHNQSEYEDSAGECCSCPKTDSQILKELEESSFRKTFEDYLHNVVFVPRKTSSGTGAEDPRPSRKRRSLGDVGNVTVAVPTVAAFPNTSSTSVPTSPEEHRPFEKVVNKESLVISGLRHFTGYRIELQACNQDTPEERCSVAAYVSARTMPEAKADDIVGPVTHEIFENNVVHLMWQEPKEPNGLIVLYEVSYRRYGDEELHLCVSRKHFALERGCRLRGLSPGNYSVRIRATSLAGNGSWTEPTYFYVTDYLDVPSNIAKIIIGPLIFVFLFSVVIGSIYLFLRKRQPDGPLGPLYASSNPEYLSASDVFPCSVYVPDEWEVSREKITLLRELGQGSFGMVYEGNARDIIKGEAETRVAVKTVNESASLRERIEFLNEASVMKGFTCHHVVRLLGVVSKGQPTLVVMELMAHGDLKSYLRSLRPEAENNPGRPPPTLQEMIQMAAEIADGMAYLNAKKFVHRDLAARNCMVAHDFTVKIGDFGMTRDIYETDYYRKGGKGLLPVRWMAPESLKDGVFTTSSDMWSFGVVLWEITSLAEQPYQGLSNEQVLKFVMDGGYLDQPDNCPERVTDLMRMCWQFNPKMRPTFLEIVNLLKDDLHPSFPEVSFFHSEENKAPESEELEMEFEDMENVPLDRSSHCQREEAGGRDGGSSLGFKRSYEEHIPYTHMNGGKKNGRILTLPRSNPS

Q: What does the source list for `CCOc1cc(CCN2CCN(C)CC2)ccc1Nc1nccc(-c2c(-c3cccc(C(=O)Nc4c(F)cccc4F)c3)nc3ccccn23)n1` [Example 147, N-(2,6-difluorophenyl)-3-{3-[2-({2-(ethyloxy)-4-[2-(4-methyl-1-piperazinyl)ethyl]-phenyl}amino)-4-pyrimidinyl}imidazo[1,2-a]pyridin-2-yl]benzamide]?
A: IC50 [1]: < 100 nM; IC50 (human IR (hIR)): < 100 nM; IC50 (human IGF1R (hIGF1R)): < 100 nM; IC50 (COLO205 (colon)): > 1000 nM; IC50 [2]: < 100 nM

Q: `CCOc1cc(N2CCC(CCS(C)(=O)=O)CC2)c(CC)cc1Nc1nccc(-c2c(-c3ccc(OCC)c(C(=O)Nc4c(F)cccc4F)c3)nc3ccccn23)n1` [Example 208, N-(2,6-difluorophenyl)-5-(3-{2-[(5-ethyl-2-(ethyloxy)-4-{4-[2-(methylsulfonyl)ethyl]-1-piperidinyl}phenyl)amino]-4-pyrimidinyl}imidazo[1,2-a]pyridin-2-yl)-2-(ethyloxy)benzamide] was tested. Which IC50 [1] did it give?
A: < 100 nM

Q: And the IC50 [3]?
A: < 250 nM

Q: What about the “IR pIC50” value (human IR (hIR)) of the same compound?
A: ++ (at least one average pIC50 measurement greater than 6 against the kinase tested but no average measurement greater than pIC50 of 7)

Q: What about the “IGF-1R pIC50” value (human IGF1R (hIGF1R)) of the same compound?
A: ++ (at least one average pIC50 measurement greater than 6 against the kinase tested but no average measurement greater than pIC50 of 7)

Q: What about the IC50 (COLO205 (colon)) of the same compound?
A: < 250 nM

Q: What about the IC50 [2] of the same compound?
A: < 100 nM

Q: What does the source list for `COc1cc(N2CCC(CCS(C)(=O)=O)CC2)c(C)cc1Nc1nccc(-c2c(-c3ccc(OC(C)C)c(C(=O)Nc4c(F)cccc4F)c3)nc3ccccn23)n1` [Example 214, N-(2,6-difluorophenyl)-2-[(1-methylethyl)oxy]-5-(3-{2-[(5-methyl-2-(methyloxy)-4-{4-[2-(methylsulfonyl)ethyl]-1-piperidinyl}phenyl)amino]-4-pyrimidinyl}imidazo[1,2-a]pyridin-2-yl)benzamide]?
A: IC50 [1]: < 100 nM; IC50 [3]: < 250 nM; IGF-1R pIC50 (human IGF1R (hIGF1R)): ++ (at least one average pIC50 measurement greater than 6 against the kinase tested but no average measurement greater than pIC50 of 7); IC50 (COLO205 (colon)): < 250 nM; IC50 [2]: < 100 nM

Q: `CCOc1ccc(-c2nc3ccccn3c2-c2ccnc(Nc3cc(CC)c(N4CCC(N5CCN(S(C)(=O)=O)CC5)CC4)cc3OC)n2)cc1C(=O)Nc1c(F)cccc1F` [Example 206, N-(2,6-difluorophenyl)-5-(3-{2-[(5-ethyl-2-(methyloxy)-4-{4-[4-(methylsulfonyl)-1-piperazinyl]-1-piperidinyl}phenyl)amino]-4-pyrimidinyl}imidazo[1,2-a]pyridin-2-yl)-2-(ethyloxy)benzamide] was tested. Which IC50 [1] did it give?
A: < 100 nM

Q: What about the IC50 [3] of the same compound?
A: < 250 nM

Q: What about the “IR pIC50” value (human IR (hIR)) of the same compound?
A: ++ (at least one average pIC50 measurement greater than 6 against the kinase tested but no average measurement greater than pIC50 of 7)

Q: And the “IGF-1R pIC50” value (human IGF1R (hIGF1R))?
A: ++ (at least one average pIC50 measurement greater than 6 against the kinase tested but no average measurement greater than pIC50 of 7)

Q: And the IC50 (COLO205 (colon))?
A: < 250 nM

Q: And the IC50 [2]?
A: < 100 nM

Q: How did the IC50 [1] turn out when `CCOc1ccc(-c2nc3ccccn3c2-c2ccnc(Nc3cc(CC)c(N4CCC(CCS(C)(=O)=O)CC4)cc3OC)n2)cc1C(=O)Nc1c(F)cccc1F` [Example 209, N-(2,6-difluorophenyl)-5-(3-{2-[(5-ethyl-2-(methyloxy)-4-{4-[2-(methylsulfonyl)ethyl]-1-piperidinyl}phenyl)amino]-4-pyrimidinyl}imidazo[1,2-a]pyridin-2-yl)-2-(ethyloxy)benzamide] was run?
A: < 100 nM

Q: What about the IC50 [3] of the same compound?
A: < 250 nM

Q: What about the “IGF-1R pIC50” value (human IGF1R (hIGF1R)) of the same compound?
A: ++ (at least one average pIC50 measurement greater than 6 against the kinase tested but no average measurement greater than pIC50 of 7)

Q: And the IC50 (COLO205 (colon))?
A: < 250 nM

Q: And the IC50 [2]?
A: < 100 nM

Q: What does the source list for `COc1cc(N2CCN(S(C)(=O)=O)CC2)c(C)cc1Nc1nccc(-c2c(-c3ccc(OC)c(C(=O)Nc4c(F)cccc4F)c3)nc3ccccn23)n1` [Example 225, N-(2,6-difluorophenyl)-5-{3-[2-({5-methyl-2-(methyloxy)-4-[4-(methylsulfonyl)-1-piperazinyl]phenyl}amino)-4-pyrimidinyl]imidazo[1,2-a]pyridin-2-yl}-2-(methyloxy)benzamide]?
A: IC50 [1]: < 100 nM; IC50 [3]: < 250 nM; IC50 (human IR (hIR)): < 100 nM; IC50 (human IGF1R (hIGF1R)): < 100 nM; IC50 (COLO205 (colon)): < 250 nM; IC50 [2]: < 100 nM

Q: Which IC50 [1] does the source give for `CCOc1cc(CCN2CCN(C)CC2)ccc1Nc1nccc(-c2c(-c3ccc(OC)c(C(=O)Nc4c(F)cccc4F)c3)nc3ccccn23)n1` [Example 146, N-(2,6-difluorophenyl)-5-{3-[2-({2-(ethyloxy)-4-[2-(4-methyl-1-piperazinyl)ethyl]-phenyl}amino)-4-pyrimidinyl]imidazo[1,2-a]pyridin-2-yl}-2-(methyloxy)benzamide] here?
A: > 500 nM

Q: What about the IC50 (human IR (hIR)) of the same compound?
A: < 100 nM

Q: What about the IC50 (human IGF1R (hIGF1R)) of the same compound?
A: < 100 nM

Q: What about the IC50 (COLO205 (colon)) of the same compound?
A: 250 to 1000 nM

Q: What about the IC50 [2] of the same compound?
A: > 500 nM

Q: How did the IC50 [1] turn out when `CCOc1cc(N2CCC(CCS(C)(=O)=O)CC2)c(C)cc1Nc1nccc(-c2c(-c3ccc(OCC)c(C(=O)Nc4c(F)cccc4F)c3)nc3ccccn23)n1` [Example 217, N-(2,6-difluorophenyl)-2-(ethyloxy)-5-(3-{2-[(2-(ethyloxy)-5-methyl-4-{4-[2-(methylsulfonyl)ethyl]-1-piperidinyl}phenyl)amino]-4-pyrimidinyl}imidazo[1,2-a]pyridin-2-yl)benzamide] was run?
A: < 100 nM

Q: What about the IC50 [3] of the same compound?
A: < 250 nM

Q: What about the “IGF-1R pIC50” value (human IGF1R (hIGF1R)) of the same compound?
A: ++ (at least one average pIC50 measurement greater than 6 against the kinase tested but no average measurement greater than pIC50 of 7)

Q: What about the IC50 (COLO205 (colon)) of the same compound?
A: < 250 nM

Q: And the IC50 [2]?
A: < 100 nM

From US20100216779A1 (GLAXOSMITHKLINE LLC, priority 2007, published 2010)
